Source: US8618151B2, “Inhibitors of HCV NS5A” (Presidio Pharmaceuticals, Inc., priority 2008, dated 2013)

System: HCV genotype 1b replicon
Assay: HCV replicon assay (1b_Huh-Luc/Neo-ET cell line, luciferase readout)
Assay type: cell-based
Conditions: Hepatitis C virus, Huh-7, 72 h, read-out: Inhibition of HCV genotype 1b
Summary of the method: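 Luciferase activity (Bright-Glo) after 72 h compound exposure, in triplicate, measured replicon levels in Huh 7-derived 1b_Huh-Luc/Neo-ET cells. EC50 was fitted from percent-of-control values and determined in repeat runs.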

| SMILES | EC50 [nM] |
| --- | --- |
| COC(=O)N[C@H](C(=O)N1CCC[C@H]1c1nc(-c2ccc3c(c2)CCN(c2c(F)cc(-c4cnc([C@@H]5CCCN5C(=O)[C@@H](NC(=O)OC)C5CC5)[nH]4)cc2F)C3)c[nH]1)C1CC1 [compound 271] | < 1 |
| COC(=O)N[C@@H](C)C(=O)N1CCC[C@H]1c1nc(-c2ccc3c(c2)CCN(c2c(F)cc(-c4cnc([C@@H]5CCCN5C(=O)[C@H](C)NC(=O)OC)[nH]4)cc2F)C3)c[nH]1 [compound 272] | < 1 |
| COC(=O)N[C@@H](C)C(=O)N1CCC[C@H]1c1nc(-c2ccc3nc(N4CCC(c5cnc([C@@H]6CCCN6C(=O)[C@H](C)NC(=O)OC)[nH]5)CC4)ccc3c2)c[nH]1 [compound 273] | 1 to 9.9 |
| COC(=O)N[C@H](C(=O)N1CCC[C@H]1c1nc(-c2ccc3nc(N4CCC(c5cnc([C@@H]6CCCN6C(=O)[C@@H](NC(=O)OC)C6CC6)[nH]5)CC4)ccc3c2)c[nH]1)C1CC1 [compound 274] | 1 to 9.9 |
| COC(=O)N[C@H](C(=O)N1CCC[C@H]1c1nc(-c2ccc3nc(N4CCC(c5cnc([C@@H]6CCCN6C(=O)[C@@H](NC(=O)OC)C(C)C)[nH]5)CC4)ccc3c2)c[nH]1)C(C)C [compound 275] | < 1 |
| COC(=O)N[C@H](C(=O)N1CCC[C@H]1c1nc2ccc(-c3ccc4cc(-c5ccc6nc([C@@H]7CCCN7C(=O)[C@@H](NC(=O)OC)C(C)C)[nH]c6c5)ccc4c3)cc2[nH]1)C(C)C [compound 276] | < 1 |
| COC(=O)N[C@H](C(=O)N1CCC[C@H]1c1nc2ccc(-c3cccc4c(-c5ccc6nc([C@@H]7CCCN7C(=O)[C@@H](NC(=O)OC)C(C)C)[nH]c6c5)cccc34)cc2[nH]1)C(C)C [compound 277] | < 1 |
| COC(=O)N[C@@H](C)C(=O)N1CCC[C@H]1c1nc2ccc(-c3ccc4cc(-c5ccc6nc([C@@H]7CCCN7C(=O)[C@H](C)NC(=O)OC)[nH]c6c5)ccc4c3)cc2[nH]1 [compound 278] | < 1 |
| COC(=O)N[C@H](C(=O)N1CCC[C@H]1c1nc2ccc(-c3ccc4cc(-c5ccc6nc([C@@H]7CCCN7C(=O)[C@@H](NC(=O)OC)C7CCOCC7)[nH]c6c5)ccc4c3)cc2[nH]1)C1CCOCC1 [compound 279] | < 1 |
| COC(=O)N[C@H](C(=O)N1CCC[C@H]1c1nc2ccc(-c3ccc4nc(-c5ccc6nc([C@@H]7CCCN7C(=O)[C@@H](NC(=O)OC)C(C)C)[nH]c6c5)ccc4c3)cc2[nH]1)C(C)C [compound 280] | < 1 |
| COC(=O)N[C@H](C(=O)N1CCC[C@H]1c1nc2ccc(-c3ccc4cc(-c5ccc6nc([C@@H]7CCCN7C(=O)[C@@H](NC(=O)OC)C(C)C)[nH]c6c5)ncc4c3)cc2[nH]1)C(C)C [compound 281] | < 1 |
| COC(=O)N[C@H](C(=O)N1CCC[C@H]1c1nc2ccc(-c3ccc4cc(-c5ccc6nc([C@@H]7CCCN7C(=O)[C@@H](NC(=O)OC)C7CCOCC7)[nH]c6c5)ccc4c3)cc2[nH]1)C(C)C [compound 282] | < 1 |
| COC(=O)N[C@H](C(=O)N1CCC[C@H]1c1nc2ccc(-c3ccc4cc(-c5ccc6nc([C@@H]7CCCN7C(=O)[C@H](NC(=O)OC)c7ccccc7)[nH]c6c5)ccc4c3)cc2[nH]1)C(C)C [compound 283] | < 1 |
| COC(=O)N[C@@H](C(=O)N1CCC[C@H]1c1nc(-c2ccc3nc(C4CCC(c5cnc([C@@H]6CCCN6C(=O)[C@H](NC(=O)OC)c6ccccc6)[nH]5)CC4)ccc3c2)c[nH]1)c1ccccc1 (stereo partly drawn) [compound 286] | < 1 |
| COC(=O)N[C@H](C(=O)N1CCC[C@H]1c1nc(-c2ccc3c(=O)n(-c4ccc(-c5cnc([C@@H]6CCCN6C(=O)[C@@H](NC(=O)OC)C(C)C)[nH]5)cc4)ccc3c2)c[nH]1)C(C)C [compound 287] | < 1 |
| COC(=O)N[C@@H](C(=O)N1CCC[C@H]1c1nc(-c2ccc3c(=O)n(-c4ccc(-c5cnc([C@@H]6CCCN6C(=O)[C@H](NC(=O)OC)c6ccccc6)[nH]5)cc4)ccc3c2)c[nH]1)c1ccccc1 [compound 288] | < 1 |
| COC(=O)N[C@@H](C(=O)N1CCC[C@H]1c1nc(-c2ccc3c(c2)CCN(c2ccc(-c4cnc([C@@H]5CCCN5C(=O)[C@H](NC(=O)OC)c5ccccc5)[nH]4)cc2)C3=O)c[nH]1)c1ccccc1 [compound 289] | < 1 |
| COC(=O)N[C@H](C(=O)N1CCC[C@H]1c1ncc(-c2ccc(N3Cc4cc(-c5cnc([C@@H]6CCCN6C(=O)[C@@H](NC(=O)OC)C(C)C)[nH]5)ccc4C3=O)cc2)[nH]1)C(C)C [compound 290] | < 1 |
| COC(=O)N[C@H](C(=O)N1CCC[C@H]1c1nc(C2CNc3cc(-c4ccc(-c5cnc([C@@H]6CCCN6C(=O)[C@H](NC(=O)OC6CCOCC6)c6ccccc6)[nH]5)cc4)ccc3C2)c[nH]1)C(C)C (stereo partly drawn) [compound 291] | < 1 |
| COC(=O)N[C@H](C(=O)N1CCC[C@H]1c1ncc(-c2ccc3cc(-c4ccc5c(c4)CCc4nc([C@@H]6CCCN6C(=O)[C@@H](NC(=O)OC)C(C)C)[nH]c4-5)ncc3c2)[nH]1)C(C)C [compound 292] | < 1 |
| COC(=O)N[C@H](C(=O)N1CCC[C@H]1c1nc2c([nH]1)-c1ccc(-c3cc4ccc(-c5cnc([C@@H]6CCCN6C(=O)[C@@H](NC(=O)OC)C6CCOCC6)[nH]5)cc4cn3)cc1CC2)C(C)C [compound 293] | < 1 |
| COC(=O)N[C@H](C(=O)N1CCC[C@H]1c1nc2c([nH]1)-c1ccc(-c3cc4ccc(-c5cnc([C@@H]6CCCN6C(=O)[C@H](NC(=O)OC)c6ccccc6)[nH]5)cc4cn3)cc1CC2)C(C)C [compound 294] | < 1 |
| COC(=O)N[C@H](C(=O)N1CCC[C@H]1c1nc2c([nH]1)-c1ccc(-c3cc4ccc(-c5cnc([C@@H]6CCCN6C(=O)[C@H](NC(=O)OC6CCOCC6)c6ccccc6)[nH]5)cc4cn3)cc1CC2)C(C)C [compound 295] | < 1 |
| COC(=O)N[C@H](C(=O)N1CCC[C@H]1c1ncc(-c2ccc3nc(-c4ccc5c(ccc6nc([C@@H]7CCCN7C(=O)[C@@H](NC(=O)OC)C(C)C)[nH]c65)c4)ccc3c2)[nH]1)C(C)C [compound 296] | < 1 |
| COC(=O)N[C@H](C(=O)N1CCC[C@H]1c1nc2ccc3cc(-c4ccc5cc(-c6cnc([C@@H]7CCCN7C(=O)[C@@H](NC(=O)OC)C7CCOCC7)[nH]6)ccc5n4)ccc3c2[nH]1)C(C)C [compound 297] | < 1 |
| COC(=O)N[C@H](C(=O)N1CCC[C@H]1c1nc2ccc3cc(-c4ccc5cc(-c6cnc([C@@H]7CCCN7C(=O)[C@H](NC(=O)OC)c7ccccc7)[nH]6)ccc5n4)ccc3c2[nH]1)C(C)C [compound 298] | < 1 |
| COC(=O)N[C@H](C(=O)N1CCC[C@H]1c1nc2ccc3cc(-c4ccc5cc(-c6cnc([C@@H]7CCCN7C(=O)[C@H](NC(=O)OC7CCOCC7)c7ccccc7)[nH]6)ccc5n4)ccc3c2[nH]1)C(C)C [compound 299] | < 1 |
